Results: patent publication US20020137929A1, “1 - (3-heterocyclylphenyl) isothiourea, -isourea, -guanidine and -amidine herbicidal agents” (Intellectual Property Department, BASF Aktiengesellschaft, priority 1998, published 2002)

What was measured:
ECHCG (Barnyardgrass) [1] = experiment: Preemergence herbicidal evaluation; type: in vivo, Echinochloa crus-galli; settings: preemergence, rated 4-5 weeks after treatment, 0-9 scale
In short: (§1)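 Test compound, dissolved in aqueous acetone, was sprayed over planted soil cups at an equivalent of about 0.0156 to 0.500 kg/ha; seeds had been mixed with potting soil. Greenhouse growth followed, with visual 0-9 scoring of injury at four to five weeks.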

[2] = test system: TRZAWR (Wheat, Winter, cv Riband); experiment: Postemergence herbicidal evaluation; type: in vivo, Triticum aestivum; settings: postemergence
In short: (§2)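 Herbicidal effect was judged by eye on a 0–9 scale covering stand, vigor, deformity, size and chlorosis, compared with controls, four to five weeks after seedlings about two weeks old were sprayed (40 psi, ~0.0156–0.500 kg/ha).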

[3] = test system: IPOHE (Morningglory, Ivyleaf); experiment: Postemergence herbicidal evaluation; type: in vivo, Ipomoea hederacea; settings: postemergence
In short: as §2

CASOB (Sicklepod) = experiment: Preemergence herbicidal evaluation; type: in vivo, Cassia obtusifolia; settings: preemergence, rated 4-5 weeks after treatment, 0-9 scale
In short: as §1

[4] = test system: ECHORC (Watergrass (Calif.)); experiment: Postemergence weed control under flooded paddy conditions; type: in vivo, Echinochloa oryzoides; settings: postemergence weeds, rated 3 to 4 weeks after treatment
In short: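 Flood-water application, about 0.0313–0.500 kg/ha a.i. in aqueous/acetone 50/50 v/v; water depth 1.5–3 cm throughout. Weeds 3–5 cm, rice 1.5–2.5 leaf. Greenhouse; 0–9 visual rating vs control at 3–4 wk.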

SETVI (Foxtail, Green) = experiment: Postemergence herbicidal evaluation; type: in vivo, Setaria viridis; settings: postemergence
In short: as §2

ECHCG (Barnyardgrass) [5] = experiment: Postemergence herbicidal evaluation; type: in vivo, Echinochloa crus-galli; settings: postemergence
In short: as §2

[6] = test system: CHEAL (Lambsquarters, Common); experiment: Preemergence herbicidal evaluation; type: in vivo, Chenopodium album; settings: preemergence, rated 4-5 weeks after treatment, 0-9 scale
In short: as §1

AMBEL (Ragweed, Common) = experiment: Postemergence herbicidal evaluation; type: in vivo, Ambrosia artemisifolia; settings: postemergence
In short: as §2

[7] = test system: GLXMAW (Soybean, Williams); experiment: Postemergence herbicidal evaluation; type: in vivo, Glycine max, (L.) Merr. cv Williams; settings: postemergence
In short: as §2

[8] = test system: IPOHE (Morningglory, Ivyleaf); experiment: Preemergence herbicidal evaluation; type: in vivo, Ipomoea hederacea; settings: preemergence, rated 4-5 weeks after treatment, 0-9 scale
In short: as §1

ABUTH (Velvetleaf) = experiment: Postemergence herbicidal evaluation; type: in vivo, Abutilon theophrasti; settings: postemergence
In short: as §2

GALAP (Galium) = experiment: Preemergence herbicidal evaluation; type: in vivo, Galium aparine; settings: preemergence, rated 4-5 weeks after treatment, 0-9 scale
In short: as §1

ZEAMX (Corn, Field) = experiment: Preemergence herbicidal evaluation; type: in vivo, Zea mays; settings: preemergence, rated 4-5 weeks after treatment, 0-9 scale
In short: as §1

CCOC(=O)CN1C(=O)C(CC(=O)OC(C)C(=O)OCC)S/C1=N/c1cc(-n2c(=O)cc(C(F)(F)F)n(C)c2=O)c(F)cc1Cl (stereo not shown) [Compound 87]
ECHCG rating (ECHCG (Barnyardgrass) [1]; 0.1250 kg/ha): 0.0
ECHCG rating (ECHCG (Barnyardgrass) [1]; 0.2500 kg/ha): 0.0
ECHCG rating (ECHCG (Barnyardgrass) [1]; 0.5000 kg/ha): 0.0
TRZAWR herbicidal rating ([2]; rate 0.0156 kg/ha): 2.5
TRZAWR herbicidal rating ([2]; rate 0.0313 kg/ha): 3.0
TRZAWR herbicidal rating ([2]; rate 0.0625 kg/ha): 4.5
TRZAWR herbicidal rating ([2]; rate 0.1250 kg/ha): 4.5
TRZAWR herbicidal rating ([2]; rate 0.2500 kg/ha): 6.0
IPOHE herbicidal rating ([3]; rate 0.0156 kg/ha): 9.0
IPOHE herbicidal rating ([3]; rate 0.0313 kg/ha): 9.0
IPOHE herbicidal rating ([3]; rate 0.0625 kg/ha): 9.0
IPOHE herbicidal rating ([3]; rate 0.1250 kg/ha): 9.0
IPOHE herbicidal rating ([3]; rate 0.2500 kg/ha): 9.0
CASOB rating (CASOB (Sicklepod); 0.1250 kg/ha): 0.0
CASOB rating (CASOB (Sicklepod); 0.2500 kg/ha): 0.0
CASOB rating (CASOB (Sicklepod); 0.5000 kg/ha): 2.0
Herbicidal rating ECHORC ([4]; Rate 0.0313 kg/ha): 0.0
Herbicidal rating ECHORC ([4]; Rate 0.0625 kg/ha): 0.0
Herbicidal rating ECHORC ([4]; Rate 0.1250 kg/ha): 2.0
Herbicidal rating ECHORC ([4]; Rate 0.2500 kg/ha): 3.0
Herbicidal rating ECHORC ([4]; Rate 0.5000 kg/ha): 3.0
SETVI herbicidal rating (SETVI (Foxtail, Green); rate 0.0156 kg/ha): 0.0
SETVI herbicidal rating (SETVI (Foxtail, Green); rate 0.0313 kg/ha): 0.0
SETVI herbicidal rating (SETVI (Foxtail, Green); rate 0.0625 kg/ha): 2.0
SETVI herbicidal rating (SETVI (Foxtail, Green); rate 0.1250 kg/ha): 7.0
SETVI herbicidal rating (SETVI (Foxtail, Green); rate 0.2500 kg/ha): 7.0
ECHCG herbicidal rating (ECHCG (Barnyardgrass) [5]; rate 0.0156 kg/ha): 0.0
ECHCG herbicidal rating (ECHCG (Barnyardgrass) [5]; rate 0.0313 kg/ha): 0.0
ECHCG herbicidal rating (ECHCG (Barnyardgrass) [5]; rate 0.0625 kg/ha): 2.0
ECHCG herbicidal rating (ECHCG (Barnyardgrass) [5]; rate 0.1250 kg/ha): 9.0
ECHCG herbicidal rating (ECHCG (Barnyardgrass) [5]; rate 0.2500 kg/ha): 9.0
CHEAL rating ([6]; 0.1250 kg/ha): 4.0
CHEAL rating ([6]; 0.2500 kg/ha): 9.0
CHEAL rating ([6]; 0.5000 kg/ha): 9.0
AMBEL herbicidal rating (AMBEL (Ragweed, Common); rate 0.0156 kg/ha): 0.0
AMBEL herbicidal rating (AMBEL (Ragweed, Common); rate 0.0313 kg/ha): 4.0
AMBEL herbicidal rating (AMBEL (Ragweed, Common); rate 0.0625 kg/ha): 7.0
AMBEL herbicidal rating (AMBEL (Ragweed, Common); rate 0.1250 kg/ha): 9.0
AMBEL herbicidal rating (AMBEL (Ragweed, Common); rate 0.2500 kg/ha): 9.0
GLXMAW herbicidal rating ([7]; rate 0.0156 kg/ha): 4.5
GLXMAW herbicidal rating ([7]; rate 0.0313 kg/ha): 5.5
GLXMAW herbicidal rating ([7]; rate 0.0625 kg/ha): 7.5
GLXMAW herbicidal rating ([7]; rate 0.1250 kg/ha): 8.0
GLXMAW herbicidal rating ([7]; rate 0.2500 kg/ha): 9.0
IPOHE rating ([8]; 0.1250 kg/ha): 1.0
IPOHE rating ([8]; 0.2500 kg/ha): 5.0
IPOHE rating ([8]; 0.5000 kg/ha): 6.0
ABUTH herbicidal rating (ABUTH (Velvetleaf); rate 0.0156 kg/ha): 2.0
ABUTH herbicidal rating (ABUTH (Velvetleaf); rate 0.0313 kg/ha): 4.0
ABUTH herbicidal rating (ABUTH (Velvetleaf); rate 0.0625 kg/ha): 9.0
ABUTH herbicidal rating (ABUTH (Velvetleaf); rate 0.1250 kg/ha): 9.0
ABUTH herbicidal rating (ABUTH (Velvetleaf); rate 0.2500 kg/ha): 9.0
GALAP rating (GALAP (Galium); 0.1250 kg/ha): 0.0
GALAP rating (GALAP (Galium); 0.2500 kg/ha): 0.0
GALAP rating (GALAP (Galium); 0.5000 kg/ha): 7.0
ZEAMX rating (ZEAMX (Corn, Field); 0.1250 kg/ha): 0.0
ZEAMX rating (ZEAMX (Corn, Field); 0.2500 kg/ha): 0.0
ZEAMX rating (ZEAMX (Corn, Field); 0.5000 kg/ha): 1.0
